# Assay results as given in article PMC12670405, “Second-Generation AURKA-Targeting PROTACs: Structural Optimization toward in Vivo Degradation in Neuroblastoma” (Journal of Medicinal Chemistry, 2025).
# Tests used:
# Experiment in all cases: KINOMEscan scanMAX
# Format in all cases: binding
# Details in all cases: read-out: Percent Control
# [1] = target: T1, ABL1(H396P)-phosphorylated (Homo sapiens, UniProt P00519, H396P)
# T1 construct: purchased Eurofins Discovery (DiscoverX KINOMEscan scanMAX)
# Protocol: (§1) The kinome-wide binding assay was performed by Eurofins Discovery using the scanMAX screening platform. More information can be found on the Eurofins Discovery Web site.
# [2] = target: T2, ABL1(Q252H)-phosphorylated (Homo sapiens, UniProt P00519, Q252H)
# T2 construct: purchased Eurofins Discovery (DiscoverX KINOMEscan scanMAX)
# Protocol: as §1
# [3] = target: T3, ABL1(T315I)-nonphosphorylated (Homo sapiens, UniProt P00519, T315I)
# T3 construct: purchased Eurofins Discovery (DiscoverX KINOMEscan scanMAX)
# Protocol: as §1
# ALK(L1196M) = target: T4, ALK(L1196M) (Homo sapiens, UniProt Q9UM73, L1196M)
# T4 construct: purchased Eurofins Discovery (DiscoverX KINOMEscan scanMAX)
# Protocol: as §1
# ANKK1 = target: T5, ANKK1 (Homo sapiens, UniProt Q8NFD2)
# T5 construct: purchased Eurofins Discovery (DiscoverX KINOMEscan scanMAX)
# Protocol: as §1
# BRSK2 = target: T6, BRSK2 (Homo sapiens, UniProt Q8IWQ3)
# T6 construct: purchased Eurofins Discovery (DiscoverX KINOMEscan scanMAX)
# Protocol: as §1
# EGFR(G719S) = target: T7, EGFR(G719S) (Homo sapiens, UniProt P00533, G719S)
# T7 construct: purchased Eurofins Discovery (DiscoverX KINOMEscan scanMAX)
# Protocol: as §1
# EGFR(L858R) = target: T8, EGFR(L858R) (Homo sapiens, UniProt P00533, L858R)
# T8 construct: purchased Eurofins Discovery (DiscoverX KINOMEscan scanMAX)
# T8 sequence (P00533 25-1210 L858R): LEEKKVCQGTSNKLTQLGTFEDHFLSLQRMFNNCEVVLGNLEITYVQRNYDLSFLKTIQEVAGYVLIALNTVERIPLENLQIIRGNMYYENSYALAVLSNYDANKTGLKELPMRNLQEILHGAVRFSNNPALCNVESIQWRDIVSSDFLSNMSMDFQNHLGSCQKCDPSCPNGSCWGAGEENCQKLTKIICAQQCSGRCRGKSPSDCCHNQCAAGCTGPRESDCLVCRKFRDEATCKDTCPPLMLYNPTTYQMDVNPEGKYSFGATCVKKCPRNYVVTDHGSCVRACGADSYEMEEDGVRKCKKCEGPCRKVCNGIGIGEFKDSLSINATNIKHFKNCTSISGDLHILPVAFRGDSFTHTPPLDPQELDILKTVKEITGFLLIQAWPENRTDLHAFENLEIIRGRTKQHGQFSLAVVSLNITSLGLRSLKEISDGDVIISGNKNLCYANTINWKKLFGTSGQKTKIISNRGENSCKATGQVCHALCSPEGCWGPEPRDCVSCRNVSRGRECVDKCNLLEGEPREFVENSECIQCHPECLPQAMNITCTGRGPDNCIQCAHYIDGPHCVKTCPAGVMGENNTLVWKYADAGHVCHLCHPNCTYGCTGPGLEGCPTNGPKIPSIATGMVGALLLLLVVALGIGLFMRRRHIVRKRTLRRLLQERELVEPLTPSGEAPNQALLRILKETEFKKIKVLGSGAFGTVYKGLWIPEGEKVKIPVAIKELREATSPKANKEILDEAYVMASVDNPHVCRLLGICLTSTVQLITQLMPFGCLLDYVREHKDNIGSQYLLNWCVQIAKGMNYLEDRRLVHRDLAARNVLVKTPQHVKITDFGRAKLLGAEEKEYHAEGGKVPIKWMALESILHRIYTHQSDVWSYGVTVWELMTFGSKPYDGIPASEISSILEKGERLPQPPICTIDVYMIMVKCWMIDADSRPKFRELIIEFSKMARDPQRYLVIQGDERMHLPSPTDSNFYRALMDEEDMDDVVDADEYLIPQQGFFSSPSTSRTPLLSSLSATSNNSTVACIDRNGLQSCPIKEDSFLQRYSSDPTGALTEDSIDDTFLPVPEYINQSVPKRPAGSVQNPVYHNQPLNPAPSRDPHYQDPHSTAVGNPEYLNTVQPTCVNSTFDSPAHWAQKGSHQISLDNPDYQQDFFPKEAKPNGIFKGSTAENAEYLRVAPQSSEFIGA
# Protocol: as §1
# EIF2AK1 = target: T9, EIF2AK1 (Homo sapiens, UniProt Q9BQI3)
# T9 construct: purchased Eurofins Discovery (DiscoverX KINOMEscan scanMAX)
# Protocol: as §1
# EPHA3 = target: T10, EPHA3 (Homo sapiens, UniProt P29320)
# T10 construct: purchased Eurofins Discovery (DiscoverX KINOMEscan scanMAX)
# Protocol: as §1
# FLT1 = target: T11, FLT1 (Homo sapiens, UniProt P17948)
# T11 construct: purchased Eurofins Discovery (DiscoverX KINOMEscan scanMAX)
# Protocol: as §1
# FYN = target: T12, FYN (Homo sapiens, UniProt P06241)
# T12 construct: purchased Eurofins Discovery (DiscoverX KINOMEscan scanMAX)
# Protocol: as §1
# GSK3A = target: T13, GSK3A (Homo sapiens, UniProt P49840)
# T13 construct: purchased Eurofins Discovery (DiscoverX KINOMEscan scanMAX)
# Protocol: as §1
# MAP4K5 = target: T14, MAP4K5 (Homo sapiens, UniProt Q9Y4K4)
# T14 construct: purchased Eurofins Discovery (DiscoverX KINOMEscan scanMAX)
# Protocol: as §1
# MTOR = target: T15, MTOR (Homo sapiens, UniProt P42345)
# T15 construct: purchased Eurofins Discovery (DiscoverX KINOMEscan scanMAX)
# Protocol: as §1
# MUSK = target: T16, MUSK (Homo sapiens, UniProt O15146)
# T16 construct: purchased Eurofins Discovery (DiscoverX KINOMEscan scanMAX)
# Protocol: as §1
# MYO3A = target: T17, MYO3A (Homo sapiens, UniProt Q8NEV4)
# T17 construct: purchased Eurofins Discovery (DiscoverX KINOMEscan scanMAX)
# Protocol: as §1
# PIP5K2C = target: T18, PIP5K2C (Homo sapiens, UniProt Q8TBX8)
# T18 construct: purchased Eurofins Discovery (DiscoverX KINOMEscan scanMAX)
# T18 sequence (Q8TBX8 whole entry): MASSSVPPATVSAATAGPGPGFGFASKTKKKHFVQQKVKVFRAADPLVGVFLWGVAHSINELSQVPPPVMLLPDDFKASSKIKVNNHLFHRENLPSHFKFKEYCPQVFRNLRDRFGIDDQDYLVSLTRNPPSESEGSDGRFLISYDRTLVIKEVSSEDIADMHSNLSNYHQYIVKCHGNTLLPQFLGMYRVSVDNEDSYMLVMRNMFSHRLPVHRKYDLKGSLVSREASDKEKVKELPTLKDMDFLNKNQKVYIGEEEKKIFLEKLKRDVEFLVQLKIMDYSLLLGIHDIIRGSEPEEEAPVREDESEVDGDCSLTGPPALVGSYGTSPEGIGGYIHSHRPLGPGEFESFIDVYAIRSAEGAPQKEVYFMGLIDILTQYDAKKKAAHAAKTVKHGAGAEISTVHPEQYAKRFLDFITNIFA
# Protocol: as §1
# PKN2 = target: T19, PKN2 (Homo sapiens, UniProt Q16513)
# T19 construct: purchased Eurofins Discovery (DiscoverX KINOMEscan scanMAX)
# Protocol: as §1
# PRKD1 = target: T20, PRKD1 (Homo sapiens, UniProt Q15139)
# T20 construct: purchased Eurofins Discovery (DiscoverX KINOMEscan scanMAX)
# T20 sequence (Q15139 whole entry): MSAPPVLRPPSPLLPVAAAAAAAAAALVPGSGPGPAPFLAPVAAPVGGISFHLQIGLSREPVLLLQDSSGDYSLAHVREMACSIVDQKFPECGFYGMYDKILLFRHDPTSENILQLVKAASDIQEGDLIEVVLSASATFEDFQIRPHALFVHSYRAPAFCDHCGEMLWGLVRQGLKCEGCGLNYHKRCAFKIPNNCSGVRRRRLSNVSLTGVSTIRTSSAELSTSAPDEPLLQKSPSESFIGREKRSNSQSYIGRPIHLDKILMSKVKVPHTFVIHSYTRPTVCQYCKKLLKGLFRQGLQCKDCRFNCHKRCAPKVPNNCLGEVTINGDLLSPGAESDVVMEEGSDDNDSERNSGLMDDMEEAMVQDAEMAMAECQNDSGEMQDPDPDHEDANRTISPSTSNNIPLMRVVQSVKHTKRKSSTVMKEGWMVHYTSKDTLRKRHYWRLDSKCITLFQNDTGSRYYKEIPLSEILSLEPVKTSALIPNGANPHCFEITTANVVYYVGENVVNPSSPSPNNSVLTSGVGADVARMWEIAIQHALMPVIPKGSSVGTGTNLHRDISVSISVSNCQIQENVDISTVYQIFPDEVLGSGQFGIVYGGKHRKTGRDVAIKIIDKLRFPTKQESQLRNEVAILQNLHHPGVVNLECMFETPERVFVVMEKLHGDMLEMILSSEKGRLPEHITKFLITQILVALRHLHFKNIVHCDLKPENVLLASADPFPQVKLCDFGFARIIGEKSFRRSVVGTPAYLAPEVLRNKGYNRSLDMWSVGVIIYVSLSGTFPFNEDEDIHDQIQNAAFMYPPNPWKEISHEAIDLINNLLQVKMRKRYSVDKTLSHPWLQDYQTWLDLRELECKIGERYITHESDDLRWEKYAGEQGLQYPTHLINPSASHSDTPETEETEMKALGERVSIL
# Protocol: as §1
# PRKG2 = target: T21, PRKG2 (Homo sapiens, UniProt Q13237)
# T21 construct: purchased Eurofins Discovery (DiscoverX KINOMEscan scanMAX)
# Protocol: as §1
# PRKR = target: T22, PRKR (Homo sapiens, UniProt P19525)
# T22 construct: purchased Eurofins Discovery (DiscoverX KINOMEscan scanMAX)
# Protocol: as §1
# PYK2 = target: T23, PYK2 (Homo sapiens, UniProt Q14289)
# T23 construct: purchased Eurofins Discovery (DiscoverX KINOMEscan scanMAX)
# Protocol: as §1
# RET(V804L) = target: T24, RET(V804L) (Homo sapiens, UniProt P07949, V804L)
# T24 construct: purchased Eurofins Discovery (DiscoverX KINOMEscan scanMAX)
# T24 sequence (P07949 29-1114 V804L): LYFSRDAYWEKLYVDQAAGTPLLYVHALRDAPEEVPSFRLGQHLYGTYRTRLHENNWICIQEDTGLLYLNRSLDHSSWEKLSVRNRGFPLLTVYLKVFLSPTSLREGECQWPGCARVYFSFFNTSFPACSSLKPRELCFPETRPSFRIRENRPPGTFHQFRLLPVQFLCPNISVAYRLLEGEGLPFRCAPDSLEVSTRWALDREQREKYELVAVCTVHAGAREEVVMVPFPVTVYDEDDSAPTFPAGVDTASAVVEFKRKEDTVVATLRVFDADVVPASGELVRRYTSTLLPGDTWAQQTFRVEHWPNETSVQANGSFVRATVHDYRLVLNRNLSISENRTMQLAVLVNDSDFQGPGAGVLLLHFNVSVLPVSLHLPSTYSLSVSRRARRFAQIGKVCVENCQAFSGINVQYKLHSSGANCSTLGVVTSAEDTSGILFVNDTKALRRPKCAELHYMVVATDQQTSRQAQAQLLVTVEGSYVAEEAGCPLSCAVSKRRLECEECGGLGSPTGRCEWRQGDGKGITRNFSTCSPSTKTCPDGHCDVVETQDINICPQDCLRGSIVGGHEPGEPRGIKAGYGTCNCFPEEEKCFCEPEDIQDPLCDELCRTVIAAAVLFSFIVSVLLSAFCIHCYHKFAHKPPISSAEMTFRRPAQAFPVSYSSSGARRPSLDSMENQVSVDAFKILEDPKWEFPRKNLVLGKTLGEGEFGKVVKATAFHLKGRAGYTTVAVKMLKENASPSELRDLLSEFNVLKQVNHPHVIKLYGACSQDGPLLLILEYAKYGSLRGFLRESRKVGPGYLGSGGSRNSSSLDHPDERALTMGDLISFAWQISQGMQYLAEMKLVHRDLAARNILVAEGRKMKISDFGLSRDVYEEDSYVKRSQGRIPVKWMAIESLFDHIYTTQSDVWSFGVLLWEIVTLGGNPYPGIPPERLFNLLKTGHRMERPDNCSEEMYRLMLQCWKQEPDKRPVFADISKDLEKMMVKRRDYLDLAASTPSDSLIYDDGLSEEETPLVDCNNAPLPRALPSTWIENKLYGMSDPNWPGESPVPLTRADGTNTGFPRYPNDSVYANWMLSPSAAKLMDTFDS
# Protocol: as §1
# RET(V804M) = target: T25, RET(V804M) (Homo sapiens, UniProt P07949, V804M)
# T25 construct: purchased Eurofins Discovery (DiscoverX KINOMEscan scanMAX)
# T25 sequence (P07949 29-1114 V804M): as the sequence (P07949 29-1114 V804L) above, with L776M counted along it
# Protocol: as §1
# [4] = target: T26, RSK4(Kin.Dom.1-N-terminal) (Homo sapiens, UniProt Q9UK32)
# T26 construct: RSK4(Kin.Dom.1-N-terminal); purchased Eurofins Discovery (DiscoverX KINOMEscan scanMAX)
# Protocol: as §1
# [5] = target: T27, RSK4(Kin.Dom.2-C-terminal) (Homo sapiens, UniProt Q9UK32)
# T27 construct: RSK4(Kin.Dom.2-C-terminal); purchased Eurofins Discovery (DiscoverX KINOMEscan scanMAX)
# T27 sequence (Q9UK32 401-745 limits assumed): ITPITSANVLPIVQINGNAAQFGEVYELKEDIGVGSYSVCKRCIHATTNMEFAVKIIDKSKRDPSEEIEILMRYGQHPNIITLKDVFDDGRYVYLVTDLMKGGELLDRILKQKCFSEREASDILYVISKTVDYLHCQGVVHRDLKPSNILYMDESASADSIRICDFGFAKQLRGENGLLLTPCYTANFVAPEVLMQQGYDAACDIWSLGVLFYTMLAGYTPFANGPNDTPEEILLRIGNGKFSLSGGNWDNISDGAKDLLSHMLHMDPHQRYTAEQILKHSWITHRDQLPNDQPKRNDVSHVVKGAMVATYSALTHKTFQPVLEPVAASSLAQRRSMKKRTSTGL
# Protocol: as §1
# SLK = target: T28, SLK (Homo sapiens, UniProt Q9H2G2)
# T28 construct: purchased Eurofins Discovery (DiscoverX KINOMEscan scanMAX)
# Protocol: as §1
# SNARK = target: T29, SNARK (Homo sapiens, UniProt Q9H093)
# T29 construct: purchased Eurofins Discovery (DiscoverX KINOMEscan scanMAX)
# Protocol: as §1
# [6] = target: T30, TYK2(JH2domain-pseudokinase) (Homo sapiens, UniProt P29597)
# T30 construct: TYK2(JH2domain-pseudokinase); purchased Eurofins Discovery (DiscoverX KINOMEscan scanMAX)
# Protocol: as §1
# VPS34 = target: T31, VPS34 (Homo sapiens, UniProt Q8NEB9)
# T31 construct: purchased Eurofins Discovery (DiscoverX KINOMEscan scanMAX)
# T31 sequence (Q8NEB9 whole entry): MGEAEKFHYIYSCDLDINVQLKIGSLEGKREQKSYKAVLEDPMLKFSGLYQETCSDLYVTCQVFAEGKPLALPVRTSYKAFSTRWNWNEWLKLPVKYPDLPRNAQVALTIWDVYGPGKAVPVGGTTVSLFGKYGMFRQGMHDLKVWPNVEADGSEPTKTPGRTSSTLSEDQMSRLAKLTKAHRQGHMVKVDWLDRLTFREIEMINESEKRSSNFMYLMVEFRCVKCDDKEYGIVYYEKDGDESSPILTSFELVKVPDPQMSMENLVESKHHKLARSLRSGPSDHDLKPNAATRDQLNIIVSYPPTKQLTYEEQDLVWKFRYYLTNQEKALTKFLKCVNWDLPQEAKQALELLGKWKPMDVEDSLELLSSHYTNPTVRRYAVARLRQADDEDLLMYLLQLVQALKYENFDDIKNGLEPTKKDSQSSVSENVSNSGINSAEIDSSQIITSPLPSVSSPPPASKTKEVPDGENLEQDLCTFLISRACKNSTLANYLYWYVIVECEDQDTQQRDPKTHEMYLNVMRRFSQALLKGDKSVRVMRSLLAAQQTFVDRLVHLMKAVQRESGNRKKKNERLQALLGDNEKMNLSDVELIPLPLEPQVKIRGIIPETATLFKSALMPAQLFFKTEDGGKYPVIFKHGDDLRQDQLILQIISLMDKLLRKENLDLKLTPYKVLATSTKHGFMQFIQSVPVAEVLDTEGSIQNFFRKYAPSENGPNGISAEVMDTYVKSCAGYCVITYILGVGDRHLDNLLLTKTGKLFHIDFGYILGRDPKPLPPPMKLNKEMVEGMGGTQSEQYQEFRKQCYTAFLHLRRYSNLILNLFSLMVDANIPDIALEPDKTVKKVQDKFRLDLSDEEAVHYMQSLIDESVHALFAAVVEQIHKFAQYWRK
# Protocol: as §1
# YSK1 = target: T32, YSK1 (Homo sapiens, UniProt O00506)
# T32 construct: purchased Eurofins Discovery (DiscoverX KINOMEscan scanMAX)
# Protocol: as §1
smiles,measurement,setting,value
Cc1cc(Nc2ccc(F)c(CC3(C(=O)N4CCC(F)(CN5CCN(c6ccc(N7CCC(=O)NC7=O)cn6)CC5)CC4)CCN(Cc4cccc(Cl)c4F)CC3)n2)n[nH]1 [SK5527],remaining binding at 0.1 µM,[1]; 100 nM,88%
same,remaining binding at 1 µM,[1]; 1000 nM,70%
same,remaining binding at 0.1 µM,[2]; 100 nM,68%
same,remaining binding at 1 µM,[2]; 1000 nM,44%
same,remaining binding at 0.1 µM,[3]; 100 nM,24%
same,remaining binding at 1 µM,[3]; 1000 nM,0%
same,remaining binding at 0.1 µM,ALK(L1196M); 100 nM,91%
same,remaining binding at 1 µM,ALK(L1196M); 1000 nM,100%
same,remaining binding at 0.1 µM,ANKK1; 100 nM,73%
same,remaining binding at 1 µM,ANKK1; 1000 nM,71%
same,remaining binding at 0.1 µM,BRSK2; 100 nM,100%
same,remaining binding at 1 µM,BRSK2; 1000 nM,100%
same,remaining binding at 0.1 µM,EGFR(G719S); 100 nM,94%
same,remaining binding at 1 µM,EGFR(G719S); 1000 nM,100%
same,remaining binding at 0.1 µM,EGFR(L858R); 100 nM,97%
same,remaining binding at 1 µM,EGFR(L858R); 1000 nM,83%
same,remaining binding at 0.1 µM,EIF2AK1; 100 nM,81%
same,remaining binding at 1 µM,EIF2AK1; 1000 nM,70%
same,remaining binding at 0.1 µM,EPHA3; 100 nM,99%
same,remaining binding at 1 µM,EPHA3; 1000 nM,71%
same,remaining binding at 0.1 µM,FLT1; 100 nM,91%
same,remaining binding at 1 µM,FLT1; 1000 nM,86%
same,remaining binding at 0.1 µM,FYN; 100 nM,94%
same,remaining binding at 1 µM,FYN; 1000 nM,71%
same,remaining binding at 0.1 µM,GSK3A; 100 nM,100%
same,remaining binding at 1 µM,GSK3A; 1000 nM,94%
same,remaining binding at 0.1 µM,MAP4K5; 100 nM,100%
same,remaining binding at 1 µM,MAP4K5; 1000 nM,100%
same,remaining binding at 0.1 µM,MTOR; 100 nM,100%
same,remaining binding at 1 µM,MTOR; 1000 nM,100%
same,remaining binding at 0.1 µM,MUSK; 100 nM,97%
same,remaining binding at 1 µM,MUSK; 1000 nM,95%
same,remaining binding at 0.1 µM,MYO3A; 100 nM,100%
same,remaining binding at 1 µM,MYO3A; 1000 nM,100%
same,remaining binding at 0.1 µM,PIP5K2C; 100 nM,100%
same,remaining binding at 1 µM,PIP5K2C; 1000 nM,100%
same,remaining binding at 0.1 µM,PKN2; 100 nM,81%
same,remaining binding at 1 µM,PKN2; 1000 nM,81%
same,remaining binding at 0.1 µM,PRKD1; 100 nM,100%
same,remaining binding at 1 µM,PRKD1; 1000 nM,100%
same,remaining binding at 0.1 µM,PRKG2; 100 nM,86%
same,remaining binding at 1 µM,PRKG2; 1000 nM,78%
same,remaining binding at 0.1 µM,PRKR; 100 nM,100%
same,remaining binding at 1 µM,PRKR; 1000 nM,91%
same,remaining binding at 0.1 µM,PYK2; 100 nM,91%
same,remaining binding at 1 µM,PYK2; 1000 nM,66%
same,remaining binding at 0.1 µM,RET(V804L); 100 nM,92%
same,remaining binding at 1 µM,RET(V804L); 1000 nM,38%
same,remaining binding at 0.1 µM,RET(V804M); 100 nM,85%
same,remaining binding at 1 µM,RET(V804M); 1000 nM,65%
same,remaining binding at 0.1 µM,[4]; 100 nM,93%
same,remaining binding at 1 µM,[4]; 1000 nM,79%
same,remaining binding at 0.1 µM,[5]; 100 nM,75%
same,remaining binding at 1 µM,[5]; 1000 nM,80%
same,remaining binding at 0.1 µM,SLK; 100 nM,95%
same,remaining binding at 1 µM,SLK; 1000 nM,100%
same,remaining binding at 0.1 µM,SNARK; 100 nM,86%
same,remaining binding at 1 µM,SNARK; 1000 nM,76%
same,remaining binding at 0.1 µM,[6]; 100 nM,51%
same,remaining binding at 1 µM,[6]; 1000 nM,51%
same,remaining binding at 0.1 µM,VPS34; 100 nM,92%
same,remaining binding at 1 µM,VPS34; 1000 nM,39%
same,remaining binding at 0.1 µM,YSK1; 100 nM,100%
same,remaining binding at 1 µM,YSK1; 1000 nM,98%
